Reference: patent US20060058346A1, “Novel enantiomers of etrahydroisoquinoline derivatives and theirpharmaceutically acceptable salts, their preparations and pharmaceutical compositions” (priority 2002, published 2006)
Where two headings read alike, the source gives them in different places.

How the values were obtained:
[1] = Acute toxicity in rat (LD50); type: in vivo; conditions: Sprague-Dawley, in vivo
Protocol: Sprague-Dawley rats (six weeks) were used as test sample. Each group was comprised of two rats. […] The said emulsion was administered to two rats one times using intravenous injection and intraperitoneal injection.

[2] = system: rat with DIC and MOF induced by endotoxin; assay: Endotoxin-induced DIC and multiple organ failure in rat; type: in vivo; conditions: for serum level of AST / serum level of BUN, formula 3 versus formula 4: LPS 15 mg/kg i.v. 4 hours
Protocol: Rats (Crj:CD(SD); 250±20 g) were used to test sample. Before the compound was administered, the rat was not fed. The compound was orally administered one time per day for two days in an amount of 10 mg˜25 mg/10 ml/kg/day. Distilled water (control group and LPS group) or enantiomer was administered to the rat repeatedly. After one hour, rat was anaesthetized with intramuscular injection of 50 mg/kg of pentobarbital. […] Thereafter, 50 mg/kg of pentobarbital was injected at 2 hour to the rat by intramuscular injection. Therefore, the rat was anaesthetized for all the experiment and operation.
The blood (2 ml for FDP and 6 ml for other variables) was collected from abdominal artery using a plastic syringe, into glass tube containing soy bean trypsin inhibitor and Bothrops atrox venom to measure FDP and into plastic tube containing 2.2% sodium citrate (1/10, volume/volume). The aggregated blood was centrifuged at 1200×g for 5 minutes two times. Before measurement of FDP, the supernatant was stored at freezer for at least 12 hours. Citrated blood was centrifuged at 2000×g for 30 minutes. The supernatant was used for measurement of fibrinogen and PT or APTT time. The aggregated blood collected in glass tube was disposed at the room temperature for 30 min, centrifuged to give the serum for measurement of AST and BUN.
Platelet from total citrated blood was counted by using automatic platelet counter (PLT-4, Texas International Lab.) PT or APTT time was measured by Beckton Dickenson BBL Fibrosystem (Coctkeysville, USA). FDP analysis was accomplished by using Thrombo-wellcotest kit. The said analysis was accomplished by up and down dilution method semi-quantitatively. Measurement of AST and BUN was accomplished by using Autobiochemical analyzer (Hitach 747, Japan).

LPS-injected rat = assay: Survival in LPS-injected rat; type: in vivo
Protocol: Rats (25˜30 g, ICR), originated from NIH cancer institute (Bethesda, Md., USA) were purchased from Korea Test Animal Corp. (Unsung, Korea). 20 mg/kg of LPS was injected to abdominal cavity of the rat. Thereafter, survival was observed every 24 hours for seven days, to investigate effect of enantiomer on the survival in LPS-injected rat. The compound represented by formula 3 to 8 was administered 30 min before the LPS injection.

left auricle muscle = assay: Contractile force of left auricle muscle excised from rats; set-up: species or system rat; conditions: for Contractile Force of Auricle Muscles: vehicle control:100%
Protocol: (§1) Immediately after Sprague-Dawley rats (female or male) were anaesthetized with pentobarbital sodium (50 mg/kg, i.m.), the thorax was opened to excise the heart. The heart was submerged in Krebs solution, and left auricle muscle and right auricle muscle were then isolated. The left auricle muscle was placed in an organ bath for recording of contractile force, and applied with electrical field stimulation (voltage 10% higher than threshold voltage, 1 Hz frequency, 5 ms duration). In the case of right auricle muscle, which contracts spontaneously, the number of continuous beats was recorded. In this experiment, to measure contractile fore of the two auricle muscles, the organ bath was warmed to 37° C., and as a physiological solution, Krebs solution (119.8 mM NaCl, 4.6 mM KCl, 2.5 mM CaCl2, 1.2 mM MgCl2, 25 mM NaHCO3, 1.2 mM KH2PO4, 10 mM glucose, 1 mM EDTA, pH 7.4) was used. The Krebs solution (pH 7.4) was continuously saturated with a gas mixture of 95% O2 and 5% CO2. The auricle muscle was under a tension of 1 g, and Krebs solution was exchanged with fresh solution at intervals of 20 minutes while equilibrium was maintained during a recording period of 60 minutes.

Rat Thoracic Aortas = assay: Relaxation of rat thoracic aortas contracted by phenylephrine; conditions: for IC50: Rattus norvegicus, Endothelial cell, 0.1 μM phenylephrine contraction; for relaxation of contracted blood vessels: concentration-dependant manner
Protocol: Experimental group was divided into two groups, group containing endothelial cells of blood vessel and group not containing. Blood vessel of thoracic aortas was induced to contract by treatment with 0.1 μM of phenyleprine under tension of 1 g. Upon arriving at equilibrium, the enantiomers were added to an organ bath in a cumulative manner. Relaxation of thoracic aortas was recorded using a physiograph (Grass P7), calculating their response to the compounds with consideration of their added amount.

rat PRP = assay: Inhibition of platelet aggregation in rat PRP; type: cell-based; conditions: for IC50: Platelet, rat PRP; for inhibition of platelet aggregation induced by ADP: even at the concentration as high as 1×10^−3 M
Protocol: Male rat (weighing 200±20 g) was anaesthetized with ether. The blood (nine volumes) was collected from heart using a plastic syringe containing 2.2% sodium citrate (one volume). The collected blood was centrifuged at 200×g for 10 minutes to give supernatant platelet-rich plasma (PRP). The residue was centrifuged again at 700×g for 30 minutes, giving platelet-poor plasma (PPP) for experiment. We used a platelet analyzer to count the number of platelet of the PRP. PRP was diluted with physiological saline solution to prepare solution containing platelets in an amount of 400-450×10^6/ml. The inhibitory effects of the compound represented by formulas 3 to 8 was evaluated by platelet aggregation analyzer, and the inhibitory effect of each compound is given as % below. That is, after PRP was incubated for 3 minutes at 37° C., the compounds or a carrier was added thereto, and after 1 min, platelet aggregation-inducing agent such as ADP, collagen, arachidonic acid (AA), U46619 or epinephrine was added thereto, followed by investigation of turbidity caused by aggregation of platelets. % Inhibition=A−B/A×100 [arithmetic formula 1] • (A: Platelet aggregation rate in group treated with an aggregation-inducing agent; • B: Platelet aggregation rate in group treated with both an aggregation-inducing agent and the enantiomers simultaneously)

right auricle muscle = assay: Heart rates (beats) of right auricle muscle excised from rats; set-up: species or system rat; conditions: for Heart Rates of Auricle Muscles: vehicle control:100%
Protocol: as §1

[3] = ip, single intraperitoneal injection, read-out: LD50, Intraperitioneal injection
[4] = single intravenous injection, read-out: LD50, Intravenous injection
[5] = 15 mg/kg compound 30 min before LPS 20 mg/kg i.p.
[6] = group containing endothelial cells, read-out: IC50 (E+), concentration showing relaxation response of 50%
[7] = group not containing endothelial cells, read-out: IC50 (E−), concentration showing relaxation response of 50%
[8] = ADP 2 − 5 × 10^−6 M, read-out: IC50 platelet aggregation, ADP
[9] = U46619 1.5 × 10^−6 M with threshold collagen, read-out: IC50 platelet aggregation, U46619
[10] = arachidonic acid 1 − 4 × 10^−5 M with threshold collagen, read-out: IC50 platelet aggregation, AA
[11] = collagen 2 − 5 × 10^−6 g/ml, read-out: IC50 platelet aggregation, collagen
[12] = epinephrine 1 − 4 × 10^−6 M with threshold collagen, read-out: IC50 platelet aggregation, Epinephrine

Structure (SMILES)	LD50 [1, 3]	LD50 [1, 4]	serum level of AST [2]	serum level of BUN, formula 3 versus formula 4 [2]	survival after six days (LPS-injected rat; [5])	Contractile Force of Auricle Muscles (left auricle muscle; 1 × 10^−4 M)	Contractile Force of Auricle Muscles (left auricle muscle; 1 × 10^−5 M)	Contractile Force of Auricle Muscles (left auricle muscle; 1 × 10^−6 M)	Contractile Force of Auricle Muscles (left auricle muscle; 1 × 10^−7 M)	Contractile Force of Auricle Muscles (left auricle muscle; 3 × 10^−5 M)	Contractile Force of Auricle Muscles (left auricle muscle; 3 × 10^−6 M)	Contractile Force of Auricle Muscles (left auricle muscle; 3 × 10^−7 M)	IC50 (Rat Thoracic Aortas; [6])	IC50 (Rat Thoracic Aortas; [7])	relaxation of contracted blood vessels (Rat Thoracic Aortas)	IC50 (rat PRP; [8])	IC50 (rat PRP; [9])	IC50 (rat PRP; [10])	IC50 (rat PRP; [11])	IC50 (rat PRP; [12])	further results
Oc1ccc(C[C@@H]2NCCc3cc(O)c(O)cc32)cc1 [Formula 3, (S)-6,7-Dihydroxy-1-(p-hydroxyphenylmethyl)-1,2,3,4-tetrahydroisoquinoline]	450 mg/kg	154 mg/kg	at the normal level	no difference	80%	300%	300%	250%	140%	300%	290%	180%	0.917 µM	4.3 µM	induced relaxation	> 1000 µM	25 µM	9.1 µM	450 µM	1.6 µM	serum level of FDP compared with R-configuration ([2]; 10 mg/kg, FIG. 4): lower; platelet concentration compared with R-configuration ([2]; FIG. 2): higher; survival at 30 mg/kg than 15 mg/kg (LPS-injected rat; LPS 20 mg/kg): increased; inhibitory effect on epinephrine-induced platelet aggregation, times as strong as R-enantiomer (rat PRP; epinephrine, S versus R): about nine times as strong; inhibitory effect on epinephrine-induced platelet aggregation, times as strong as racemic mixture (rat PRP; epinephrine, S versus racemic mixture): about five times as strong; inhibition of platelet aggregation induced by ADP (rat PRP): did not inhibit; Heart Rates of Auricle Muscles (right auricle muscle; 1 × 10^−4 M): 250%; Heart Rates of Auricle Muscles (right auricle muscle; 1 × 10^−5 M): 180%; Heart Rates of Auricle Muscles (right auricle muscle; 1 × 10^−6 M): 145%; Heart Rates of Auricle Muscles (right auricle muscle; 1 × 10^−7 M): 130%; Heart Rates of Auricle Muscles (right auricle muscle; 3 × 10^−5 M): 200%; Heart Rates of Auricle Muscles (right auricle muscle; 3 × 10^−6 M): 150%; Heart Rates of Auricle Muscles (right auricle muscle; 3 × 10^−7 M): 140%
Oc1ccc(C[C@H]2NCCc3cc(O)c(O)cc32)cc1 [Formula 4, (R)-6,7-Dihydroxy-1-(p-hydroxyphenylmethyl)-1,2,3,4-tetrahydroisoquinoline]	262 mg/kg	95 mg/kg	at the normal level	no difference	60%	300%	200%	130%	100%	250%	160%	100%	4.64 µM	7.7 µM	induced relaxation	≥ 1000 µM	15 µM	11 µM	300 µM	14 µM	survival after six days (LPS-injected rat; 30 mg/kg compound 30 min before LPS 20 mg/kg i.p.): 67%; effect on contractile force of auricle muscles (left auricle muscle): increased; inhibition of platelet aggregation induced by ADP (rat PRP): did not inhibit; effect on heart rates of auricle muscles (right auricle muscle): increased; Heart Rates of Auricle Muscles (right auricle muscle; 1 × 10^−4 M): 140%; Heart Rates of Auricle Muscles (right auricle muscle; 1 × 10^−5 M): 120%; Heart Rates of Auricle Muscles (right auricle muscle; 1 × 10^−6 M): 110%; Heart Rates of Auricle Muscles (right auricle muscle; 1 × 10^−7 M): 100%; Heart Rates of Auricle Muscles (right auricle muscle; 3 × 10^−5 M): 130%; Heart Rates of Auricle Muscles (right auricle muscle; 3 × 10^−6 M): 115%; Heart Rates of Auricle Muscles (right auricle muscle; 3 × 10^−7 M): 100%
